Test results: US11578084B2, “Condensed ring compounds having dopamine D3 receptor antagonistic effect” (Shionogi & Co., Ltd., priority 2018, dated 2023)
pKi: −log10 of the molar value.

Tests used:
[1] = target: human recombinant dopamine D2 receptor (Homo sapiens (Human), UniProt P14416); test: Test of binding inhibition for dopamine D2 receptor ([3H]-Methylspiperone SPA); conditions: Jump-In HEK cell membranes, 1.2 nM [3H]-Methylspiperone, 120 min at 25° C.; read-out: hD2_Ki
Procedure: (§1) (Experimental Conditions)
Cell membranes: Jump-In HEK cell membranes expressing human recombinant dopamine D2 receptor (2 μg/well)
(§2) Non-specific ligand: (final concentration) 10 μM Butaclamol [(+)-Butaclamol Hydrochloride, D033, Sigma]
(§3) SPA beads solution: SPA beads [WGA PVT SPA Scintillation Beads, RPNQ0001 (500 mg), RPNQ0060 (2 g), PerkinElmer] (0.2 mg/well)
(§4) Incubation time and temperature: 120 min at 25° C.
(§5) Butaclamol or the compounds of the present invention were weighed and DMSO was added to make a 10 mM solution. This solution was diluted to each concentration.
(§6) SPA beads were weighed and stirred in water to make a 50 mg/mL solution. Using this solution, a mixture with the cell membranes was prepared.
Jump-In HEK Cell membranes (final reaction amount: 2 μg protein/well), the SPA beads solution (final reaction amount: 0.2 mg/well) and the buffer solution were mixed, and the mixed solution was left still for 1 hour or more at 4° C. Then, 50 μL of the mixture was added to each well of the plate. […] Non-specific binding was calculated based on the radioactivity of [^3H]-Methylspiperone in the presence of 10 μM non-labeled Butaclamol. The total binding was calculated using the radioactivity of [^3H]-Methylspiperone in the absence of the compounds of the present invention (Vehicle). The Ki values were calculated from dose-response curves.
(§7) Binding activities of the compounds of the present invention were calculated from the following Binding Inhibition Rate (%): Inhibition Rate (%)=[1−(c−a)/(b−a)]×100 • a: Average cpm of non-specific binding • b: Average cpm of total binding • c: Cpm in the presence of each test compound

[2] = target: human recombinant dopamine D3 receptor (Homo sapiens (Human), UniProt P35462); test: Test of binding inhibition for dopamine D3 receptor ([3H]-Methylspiperone SPA); conditions: Jump-In HEK cell membranes, 2 nM [3H]-Methylspiperone, 120 min at 25° C.; read-out: hD3_Ki
Chain of human recombinant dopamine D3 receptor (P35462 whole entry): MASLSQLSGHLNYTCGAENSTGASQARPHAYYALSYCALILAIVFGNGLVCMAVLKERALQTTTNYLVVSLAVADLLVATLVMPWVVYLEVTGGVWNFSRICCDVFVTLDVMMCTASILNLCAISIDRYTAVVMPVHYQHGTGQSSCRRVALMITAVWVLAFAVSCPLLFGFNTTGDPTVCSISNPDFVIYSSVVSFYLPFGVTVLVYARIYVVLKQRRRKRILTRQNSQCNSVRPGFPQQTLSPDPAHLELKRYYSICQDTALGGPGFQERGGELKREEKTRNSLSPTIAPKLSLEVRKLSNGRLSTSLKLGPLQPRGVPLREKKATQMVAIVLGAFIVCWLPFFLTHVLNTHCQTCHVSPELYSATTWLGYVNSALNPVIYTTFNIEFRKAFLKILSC
Procedure: as §1
Cell membranes: Jump-In HEK cell membranes expressing human recombinant dopamine D3 receptor (4 μg/well)
as §2, §3, §4, §5
[^3H]-Methylspiperone was weighed and the buffer solution was added to make a 6 nM solution.
as §6
Jump-In HEK Cell membranes (final reaction amount: 4 μg protein/well), the SPA beads solution (final reaction amount: 0.2 mg/well) and the buffer solution were mixed and the mixed solution was left still for 1 hour or more at 4° C. Then, 50 μL of the mixture was added to each well of the plate. In addition, 25 μL of 6 nM [^3H]-Methylspiperone (final concentration: 2 nM) was added to each well. […] Non-specific binding was calculated based on the radioactivity of [^3H]-Methylspiperone in the presence of 10 μM non-labeled Butaclamol. The total binding was calculated using the radioactivity of [H]-Methylspiperone in the absence of the compounds of the present invention (vehicle). The Ki values were calculated from dose-response curves.
as §7

Chain of human recombinant dopamine D2 receptor (P14416 whole entry): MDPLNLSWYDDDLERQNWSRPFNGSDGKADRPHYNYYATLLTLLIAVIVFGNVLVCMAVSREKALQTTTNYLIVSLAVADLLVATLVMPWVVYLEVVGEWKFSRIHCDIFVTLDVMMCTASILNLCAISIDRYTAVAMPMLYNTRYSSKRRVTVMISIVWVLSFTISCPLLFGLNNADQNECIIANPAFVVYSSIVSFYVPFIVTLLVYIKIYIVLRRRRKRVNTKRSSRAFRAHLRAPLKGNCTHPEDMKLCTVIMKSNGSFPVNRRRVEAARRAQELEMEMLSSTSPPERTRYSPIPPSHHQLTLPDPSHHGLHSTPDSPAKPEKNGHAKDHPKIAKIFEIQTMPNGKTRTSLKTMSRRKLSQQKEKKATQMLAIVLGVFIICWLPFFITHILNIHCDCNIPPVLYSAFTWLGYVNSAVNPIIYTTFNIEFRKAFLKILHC

SMILES | pKi [1] | pKi [2]
CC(Oc1ccc2c(n1)CCN(CC[C@H]1CC[C@H](NC(=O)c3cccc4nn(C)cc34)CC1)CC2)C(F)F (single isomer, unassigned) [Example I-123] | 6.70 | 10.47
CC(Oc1ccc2c(n1)CCN(CC[C@H]1CC[C@H](NC(=O)c3cccc4nn(C)cc34)CC1)CC2)C(F)F (single isomer, unassigned) [Example I-124] | 6.74 | 10.14
Cc1ncc(CC(=O)NC2CC3CCC(C2)N3CCN2CCc3sc(OCC(F)(F)F)nc3C2)s1 (single isomer, unassigned) [Example I-134] | 6.52 | 9.77
Cn1cc2ccc(C(=O)N[C@H]3CC[C@H](CCN4CCc5nc(OCC(C)(F)F)sc5CC4)CC3)cc2n1 [Example I-050] | < 5.74 | 9.80
CC(F)(F)COc1nc2c(s1)CCN(CC[C@H]1CC[C@H](NC(=O)c3cnn4ccccc34)CC1)CC2 [Example I-051] | 5.96 | 9.37
Cc1cc(CC(=O)N[C@H]2CC[C@H](CCN3CCc4nc(OCC(C)(F)F)sc4CC3)CC2)on1 [Example I-052] | 5.77 | 10.08
Cc1cc(OCC(=O)N[C@H]2CC[C@H](CCN3CCc4nc(OCC(C)(F)F)sc4CC3)CC2)no1 [Example I-053] | 6.20 | 9.70
Cn1nnc2cccc(C(=O)N[C@H]3CC[C@H](CCN4CCc5nc(OCC(C)(F)F)sc5CC4)CC3)c21 [Example I-054] | 6.57 | 9.89
Cn1ccc2c(C(=O)N[C@H]3CC[C@H](CCN4CCc5nc(OCC(C)(F)F)sc5CC4)CC3)cccc2c1=O [Example I-055] | < 5.74 | 9.72
Cn1cc2c(C(=O)N[C@H]3CC[C@H](CCN4CCc5ccc(OC6CCC(F)(F)C6)nc5CC4)CC3)cccc2n1 (some centres unmarked) [Example I-057] | 6.11 | 9.74
Cc1cc2c(C(=O)N[C@H]3CC[C@](F)(CCN4CCc5nc(OCC(F)F)sc5CC4)CC3)cccn2n1 [Example I-058] | < 5.77 | 9.33
Cc1ncc(/C=C/C(=O)N[C@H]2CC[C@](F)(CCN3CCc4nc(OCC(F)F)sc4CC3)CC2)cn1 [Example I-061] | < 5.74 | 9.19
CC(C)Oc1ccc2c(n1)CCN(CC[C@H]1CC[C@H](NC(=O)c3cnn4ccccc34)CC1)CC2 [Example I-062] | 5.96 | 9.00
CC(C)Oc1ccc2c(n1)CCN(CC[C@H]1CC[C@H](NC(=O)c3cccc4c(=O)n(C)ccc34)CC1)CC2 [Example I-063] | 5.77 | 9.21
Cc1ncc(CC(=O)N[C@H]2CC[C@H](CCN3CCc4nc(OCC(C)(F)F)sc4CC3)OC2)s1 [Example I-064] | 6.02 | 9.52
Cc1c(F)cccc1C(=O)N[C@H]1CC[C@H](CCN2CCc3nc(OCC(C)(F)F)sc3CC2)OC1 [Example I-065] | 6.47 | 9.59
Cn1ncc2ccc(C(=O)N[C@H]3CC[C@H](CCN4CCc5nc(OCC(C)(F)F)sc5CC4)OC3)cc21 [Example I-067] | 6.43 | 9.80
Cc1ncc(OCC(=O)N[C@H]2CC[C@H](CCN3CCc4nc(OCC(C)(F)F)sc4CC3)OC2)cn1 [Example I-068] | 6.06 | 9.33
Cc1nc(CC(=O)N[C@H]2CC[C@H](CCN3CCc4sc(C5CC(F)(F)C5)nc4C3)CC2)no1 [Example I-070] | 6.11 | 9.77
CN1Cc2c(C(=O)N[C@H]3CC[C@](F)(CCN4CCc5nc(OCC(F)F)sc5CC4)CC3)cccc2C1=O [Example I-072] | < 5.77 | 9.89
Cc1nc(CC(=O)N[C@H]2CC[C@](F)(CCN3CCc4ccc(OCC(C)(F)F)nc4CC3)CC2)no1 [Example I-078] | < 5.74 | 9.89
Cc1cc(OCC(=O)N[C@H]2CC[C@](F)(CCN3CCc4ccc(OCC(C)(F)F)nc4CC3)CC2)no1 [Example I-079] | < 5.74 | 10.15
Cc1cc(OCC(=O)N[C@H]2CC[C@](F)(CCN3CCc4ccc(OCC(F)F)nc4CC3)CC2)no1 [Example I-084] | < 5.66 | 9.60
COc1cc(CC(=O)N[C@H]2CC[C@](F)(CCN3CCc4ccc(OCC(F)F)nc4CC3)CC2)on1 [Example I-085] | < 5.66 | 10.36

SMILES | pKi [1] | pKi [2]
Cc1cnc(CC(=O)N[C@H]2CC[C@](F)(CCN3CCc4ccc(OCC(F)F)nc4CC3)CC2)o1 [Example I-086] | < 5.66 | 9.28
Cn1cc2c(C(=O)N[C@H]3CC[C@H](CCN4CCc5ccc(OC6CCC6)nc5CC4)CC3)cccc2n1 [Example I-089] | < 5.66 | 9.66
Cc1cnc(CC(=O)N[C@H]2CC[C@H](CCN3CCc4ccc(OC5CCC5)nc4CC3)CC2)o1 [Example I-090] | < 5.62 | 9.19
Cc1ncccc1C(=O)N[C@H]1CC[C@H](CCN2CCc3ccc(OCC(F)F)nc3CC2)CC1 [Example I-091] | 6.03 | 9.55
CCn1c(C(=O)N[C@H]2CC[C@H](CCN3CCc4ccc(OCC(F)F)nc4CC3)CC2)cccc1=O [Example I-092] | 6.51 | 9.80
Cc1nnc(CC(=O)N[C@H]2CC[C@H](CCN3CCc4ccc(OCC(F)F)nc4CC3)CC2)o1 [Example I-093] | 5.92 | 9.77
Cc1cc(CC(=O)N[C@H]2CC[C@H](CCN3CCc4ccc(OCC(F)F)nc4CC3)CC2)no1 [Example I-094] | 6.04 | 9.52
Cn1cc(CC(=O)N[C@H]2CC[C@H](CCN3CCc4ccc(OCC(F)F)nc4CC3)CC2)cn1 [Example I-095] | 5.85 | 9.74
Cn1cc(OCC(=O)N[C@H]2CC[C@H](CCN3CCc4ccc(OCC(F)F)nc4CC3)CC2)cn1 [Example I-096] | 6.24 | 9.74
Cc1ncc(OCC(=O)N[C@H]2CC[C@H](CCN3CCc4ccc(OCC(F)F)nc4CC3)CC2)cn1 [Example I-097] | 6.05 | 9.96
Cc1ncc(/C=C/C(=O)N[C@H]2CC[C@H](CCN3CCc4ccc(OCC(F)F)nc4CC3)CC2)cn1 [Example I-098] | 6.46 | 9.77
Cn1ncc(CC(=O)N[C@H]2CC[C@](F)(CCN3CCc4ccc(OC5CCC5)nc4CC3)CC2)n1 [Example I-106] | < 5.64 | 9.27
Cc1ncc(CC(=O)N[C@H]2CC[C@H](CCN3CCc4nc(OCC(F)(F)F)sc4CC3)CC2)cn1 [Example I-110] | 6.34 | 9.77
Cc1nnc(CC(=O)N[C@H]2CC[C@](F)(CCN3CCc4nc(OCCC(F)(F)F)sc4CC3)CC2)s1 [Example I-115] | < 5.66 | 9.20
Cc1ncc(/C=C/C(=O)N[C@H]2CC[C@](F)(CCN3CCc4nc(OCCC(F)(F)F)sc4CC3)CC2)cn1 [Example I-116] | < 5.66 | 9.00
Cc1cnc(CC(=O)N[C@H]2CC[C@](F)(CCN3CCc4nc(OCCC(F)(F)F)sc4CC3)CC2)o1 [Example I-117] | < 5.66 | 9.26
Cc1cnc(OCC(=O)N[C@H]2CC[C@](F)(CCN3CCc4nc(OCCC(F)(F)F)sc4CC3)CC2)cn1 [Example I-118] | < 5.66 | 9.13
C[C@@H](Oc1nc2c(s1)CCN(CC[C@H]1CC[C@H](NC(=O)COc3cnn(C)c3)CC1)CC2)C(F)(F)F [Example I-120] | 6.08 | 9.08
O=C(N[C@H]1CC[C@H](CCN2CCc3ccc(OCC(F)F)nc3CC2)CC1)c1cccnc1C(F)F [Example I-121] | 6.19 | 9.59
Cn1c(C(=O)N[C@H]2CC[C@H](CCN3CCc4nc(OCC(F)(F)F)sc4CC3)CC2)ccc(F)c1=O [Example I-122] | 6.44 | 9.62
Cc1nnc(CC(=O)N[C@H]2CC[C@H](CCN3CCc4nc(O[C@H](C)C(F)(F)F)sc4CC3)CC2)s1 [Example I-125] | 5.96 | 9.21
Cc1nnc(CC(=O)N[C@H]2CC[C@](F)(CCN3CCc4nc(O[C@H](C)C(F)(F)F)sc4CC3)CC2)s1 [Example I-126] | < 5.64 | 9.04
Cc1ncc(OCC(=O)N[C@H]2CC[C@H](CCN3CCc4ccc(O[C@H](C)C(F)(F)F)nc4CC3)CC2)cn1 [Example I-127] | 6.39 | 9.92
Cn1cc(OCC(=O)N[C@H]2CC[C@H](CCN3CCc4ccc(CCC(F)(F)F)nc4CC3)CC2)cn1 [I′-6] | – | 9.48
